This test has as its target T1, human FXR (NR1H4) (Homo sapiens, UniProt Q96RI1).
T1 construct: host or cells: CHO (Chinese hamster ovary) reporter cells
T1 sequence (Q96RI1 1-486): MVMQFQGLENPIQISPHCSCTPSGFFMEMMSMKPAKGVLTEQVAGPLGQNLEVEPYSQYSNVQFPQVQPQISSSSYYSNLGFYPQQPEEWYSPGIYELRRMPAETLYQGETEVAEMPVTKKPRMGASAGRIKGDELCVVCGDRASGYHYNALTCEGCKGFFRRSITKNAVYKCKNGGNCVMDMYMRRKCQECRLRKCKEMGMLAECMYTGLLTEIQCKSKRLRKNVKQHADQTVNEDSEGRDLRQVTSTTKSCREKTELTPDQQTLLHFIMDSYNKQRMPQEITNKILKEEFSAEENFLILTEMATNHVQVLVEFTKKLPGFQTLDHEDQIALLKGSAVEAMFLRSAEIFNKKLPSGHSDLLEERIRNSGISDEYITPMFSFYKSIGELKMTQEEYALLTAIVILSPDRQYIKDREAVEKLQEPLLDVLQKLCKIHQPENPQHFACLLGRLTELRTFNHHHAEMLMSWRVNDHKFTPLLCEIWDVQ
As to the kind of experiment: Human FXR (NR1H4) Assay: Gal4 promoter driven luciferase reporter transactivation in CHO cells (Indigo Bioscience kit IB00601). On Efficacy (%): efficacy normalized to CDCA set as 100%. The conditions noted are these: for Emax: CHO, read-out: Efficacy (%); for EC50: Human FXR (NR1H4) reporter assay, potency ranges. The format is cell-based. The method, boiled down:
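CHO reporter cells expressing human FXR with an FXR-responsive promoter-driven luciferase were treated with compound dose series at 0.2% DMSO for 22 h at 37 °C. Luciferase activity was then read by luminescence as the measure of FXR activation.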

SMILES strings stand for the structures. Bounds are passed on as bounds.

The text below walks through data of US10450306B2, “Isoxazole analogs as FXR agonists and methods of use thereof” (Enanta Pharmaceuticals, Inc., priority 2016, dated 2019).

A word on the EC50: it is the midpoint of the concentration-response curve. A lower EC50 goes with higher potency in that assay.

On to `CC1(S(=O)(=O)NC(=O)c2ccc3nc(N4C5CCC4CC(NCc4c(-c6ccccc6C(F)(F)F)noc4C4CC4)C5)sc3c2)CC1` (stereo not shown) [Example 1420], for which the Emax is 91% and the EC50 fell in the range of 1 to 100 nM.
As for `CC1(S(=O)(=O)NC(=O)c2ccc3nc(N4C5CCC4CC(NCc4c(-c6c(F)cccc6F)noc4C4CC4)C5)sc3c2)CC1` (stereo not shown) [Example 1421], the Emax came out at 101% and the EC50 fell in the range of 1 to 100 nM.
Regarding `CC1(S(=O)(=O)NC(=O)c2ccc3nc(N4C5CCC4CC(NCc4c(-c6ccccc6C6CC6)noc4C4CC4)C5)sc3c2)CC1` (stereo not shown) [Example 1422], the Emax came out at 94% and the EC50 was in the range of 1 to 100 nM.
The corresponding values for `COC(=O)c1cc(OC(C)C)c2nc(N3C4CCC3CC(NCc3c(-c5c(F)cccc5F)noc3C3CC3)C4)sc2c1` (stereo not shown) [Example 1423] are 78% and greater than 1000 nM.
For `O=C(NS(=O)(=O)C1CC1)c1ccc2nc(N3C4CCC3CC(NCc3c(-c5ccccc5C(F)(F)F)noc3C3CC3)C4)oc2c1` (stereo not shown) [Example 1424], the Emax was 148% and the EC50 was in the range of 1 to 100 nM.
`CC1(S(=O)(=O)NC(=O)c2ccc3nc(N4C5CCC4CC(NCc4c(-c6ccccc6C(F)(F)F)noc4C4CC4)C5)oc3c2)CC1` (stereo not shown) [Example 1425]: the Emax amounted to 74% and the EC50 fell in the range of 100 to 1000 nM.
In the same order, the values of `CC(C)Oc1cc(C(=O)O)cc2sc(N3C4CCC3CC(NCc3c(-c5c(F)cccc5F)noc3C3CC3)C4)nc12` (stereo not shown) [Example 1426] are 73.2% and 100 to 1000 nM.
In the case of `CC(C)Oc1cc(C(=O)NS(=O)(=O)C2(C)CC2)cc2sc(N3C4CCC3CC(NCc3c(-c5c(F)cccc5F)noc3C3CC3)C4)nc12` (stereo not shown) [Example 1428], the Emax came out at 86% and the EC50 lay in the range of 1 to 100 nM.
